According to paper PMC11374673, “Discovery of isoquinoline sulfonamides as allosteric gyrase inhibitors with activity against fluoroquinolone-resistant bacteria” (Nature Chemistry, 2024):
In brackets after ≈: the same amount, converted by molar mass. Several values for one entry are separate records, joined by “and”; a condition that tells them apart may be missing. Equal values may be shown once. Read-outs that look alike come from different tables or passages of the source. Each block holds one molecule with its values, some of them ahead of it.

Key:
[1] = system: E. coli W3110; assay: H-89 derivatives rescreen, 50 µM; format: cell-based; conditions: Escherichia coli, H-89 derivative rescreen, highest 50 µM
Description: From glycerol stocks, E. coli W3110 was cultured on blood agar plates (PB5039A, Thermo Scientific) by overnight (18 ± 2 h) aerobic incubation at 37 °C. A single colony was transferred to tryptic soy broth (TSB, 02-200-500, Scharlab). The cultures were grown to exponential phase (OD600 of 0.5) at 37 °C. The bacterial suspensions were diluted 200-fold in cation-adjusted Mueller–Hinton broth (CAMHB) and 99 µl was added to a library of test compounds (1 µl 10 mM DMSO stock, per well in technical duplicates) in polypropylene 96-well microtitre plates to reach a volume of 100 µl and a final concentration of 100 µM for each test compound and a maximum of 1% DMSO. […] Screening hits were selected from the wells where no visible bacterial growth was observed, as compared with the inoculum controls containing 1% DMSO. The follow-up screen of H-89 derivatives was performed under similar conditions with a final concentration of 50 µM.

[2] = system: K. pneumoniae ATCC 29665; assay: MIC by broth microdilution; format: cell-based, Klebsiella pneumoniae; conditions: read-out: MIC K. pneumoniae ATCC 29665
How it was run: (§1)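 Broth microdilution in CAMHB: twofold compound series inoculated with 100-fold-diluted bacteria from exponential growth (OD600 0.5, 37 °C); kanamycin 50 µg ml^−1 added for Keio collection strains. Overnight incubation, 37 °C, 600 r.p.m. shaking.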

[3] = system: E. coli W3110; assay: MIC by broth microdilution; format: cell-based, Escherichia coli; conditions: for MIC: broth microdilution, read-out: MIC E. coli W3110
How it was run: as §1

[4] = system: HepG2; assay: Cytotoxicity assay (MTT); format: cell-based, human; conditions: for IC50: MTT, 24 h
[5] = system: HEK293T; assay: Cytotoxicity assay (MTT); format: cell-based, human; conditions: for MTT data (raw reading) / MTT data (raw readout): HEK293T; for IC50: Homo sapiens, HEK-293T, 24 h, MTT
How it was run: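 HEK293T cells, maintained at 37 °C and 7% CO2 in Dulbecco’s modified Eagle medium with GlutaMax, antibiotics and serum, were plated in clear 96-well plates in 100 µl medium containing 1% fetal bovine serum and left 24 h to attach. After 24 h compound exposure, MTT (0.40 mg ml^−1) was added for 2 h. Formazan was dissolved in 100 µl DMSO and absorbance measured at 570 nm. Background-corrected IC50 values came from variable-slope non-linear fits.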

[6] = Klebsiella pneumoniae, ATCC29665, broth microdilution

Structure (SMILES): O=S(=O)(NCCNC/C=C/c1ccc(-c2ccccc2)cc1)c1cccc2cnccc12 [Compound 2]
- MIC [1]: > 50 µM

Structure (SMILES): O=S(=O)(NCCNC/C=C/c1ccc(-c2ccc3ccccc3c2)cc1)c1cccc2cnccc12 [Compound 3]
- MIC [1]: > 50 µM

Structure (SMILES): O=S(=O)(NCCNC/C=C/c1ccc(-c2ccccc2)cc1)c1cccc2ccccc12 [Compound 4]
- MIC [1]: > 50 µM

Structure (SMILES): O=S(=O)(NCCNCc1ccc2cc(-c3cccnc3)ccc2c1)c1cccc2cnccc12 [Compound 5]
- MIC [1]: > 50 µM

Structure (SMILES): O=S(=O)(NCCNC/C=C/c1ccc(-c2cccnc2)cc1)c1cccc2ccccc12 [Compound 6]
- MIC [1]: > 50 µM

Structure (SMILES): O=[N+]([O-])c1ccccc1S(=O)(=O)NCCNC/C=C/c1ccc(-c2cccnc2)cc1 [Compound 7]
- MIC [1]: > 50 µM

Structure (SMILES): CN(CCNC/C=C/c1ccc(-c2cccnc2)cc1)S(=O)(=O)c1cccc2cnccc12 [Compound 8]
- MIC [1]: > 50 µM

Structure (SMILES): CN(C/C=C/c1ccc(-c2cccnc2)cc1)CCNS(=O)(=O)c1cccc2cnccc12 [Compound 9]
- MIC [1]: > 50 µM

Second part, led by results:

- MIC [1]: > 50 µM
Structure (SMILES): CN(CCNCCCc1ccc(-c2cccnc2)cc1)S(=O)(=O)c1cccc2cnccc12 [Compound 10]

- MIC [1]: > 50 µM
Structure (SMILES): O=S(=O)(NCCCCCCc1ccc(-c2cccnc2)cc1)c1cccc2cnccc12 [Compound 11]

- MIC [1]: > 50 µM
Structure (SMILES): O=C(CCc1ccc(-c2cnc3[nH]ccc3c2)cc1)NCCNS(=O)(=O)c1ccccc1 [Compound 12]

- MIC [1]: > 50 µM
Structure (SMILES): O=C(CCc1ccc(-c2cnc3[nH]ccc3c2)cc1)NCCNS(=O)(=O)c1ccc(Cl)cc1 [Compound 13]

- MIC [1]: > 50 µM
Structure (SMILES): O=C(CCc1ccc(-c2cnc3[nH]ccc3c2)cc1)NCCNS(=O)(=O)c1ccc(Cl)c(Cl)c1 [Compound 14]

- MIC [1]: > 50 µM
Structure (SMILES): Cc1ccc(S(=O)(=O)NCCNC(=O)CCc2ccc(-c3cnc4[nH]ccc4c3)cc2)cc1 [Compound 15]

- MIC [1]: > 50 µM
Structure (SMILES): COc1ccc(S(=O)(=O)NCCNC(=O)CCc2ccc(-c3cnc4[nH]ccc4c3)cc2)cc1 [Compound 16]

- MIC [2, 6]: > 50 µM
- MIC ([2]; broth microdilution): > 50 µM
- MIC ([3]; Escherichia coli, W3110, WT): > 50 µM
- MIC ([3]; WT): > 50 µM
Structure (SMILES): O=S(=O)(NC[C@@H]1CC[C@@H](c2ccc(-c3ccc(F)nc3)cc2)N1)c1cccc2cnccc12 [Compound 98]
- antimicrobial activity ([3]; relative to parent compound): completely inactive
- MTT data (raw reading) ([4]; HepG2, 0.023 uM, n = 1): 0.370 and 0.364 and 0.367
- MTT data (raw reading) ([4]; HepG2, 0.023 uM, n = 2): 0.490 and 0.437 and 0.362
- MTT data (raw reading) ([4]; HepG2, 0.068 uM, n = 1): 0.458 and 0.420 and 0.439
- MTT data (raw reading) ([4]; HepG2, 0.068 uM, n = 2): 0.379 and 0.325 and 0.398
- MTT data (raw reading) ([4]; HepG2, 0.21 uM, n = 1): 0.404 and 0.366 and 0.380
- MTT data (raw reading) ([4]; HepG2, 0.21 uM, n = 2): 0.373 and 0.308 and 0.356
- MTT data (raw reading) ([4]; HepG2, 0.62 uM, n = 1): 0.411 and 0.337 and 0.367
- MTT data (raw reading) ([4]; HepG2, 0.62 uM, n = 2): 0.419 and 0.335 and 0.320
- MTT data (raw reading) ([4]; HepG2, 1.85 uM, n = 1): 0.394 and 0.411 and 0.409
- MTT data (raw reading) ([4]; HepG2, 1.85 uM, n = 2): 0.343 and 0.331 and 0.334
- MTT data (raw reading) ([4]; HepG2, 5.6 uM, n = 1): 0.374 and 0.346 and 0.373
- MTT data (raw reading) ([4]; HepG2, 5.6 uM, n = 2): 0.307 and 0.313 and 0.306
- MTT data (raw reading) ([4]; HepG2, 16.7 uM, n = 1): 0.262 and 0.289 and 0.283
- MTT data (raw reading) ([4]; HepG2, 16.7 uM, n = 2): 0.250 and 0.271 and 0.247
- MTT data (raw reading) ([4]; HepG2, 50 uM, n = 1): 0.250 and 0.255 and 0.242
- MTT data (raw reading) ([4]; HepG2, 50 uM, n = 2): 0.199 and 0.179 and 0.169
- IC50 ([4]; Homo sapiens, HepG2, 24 h): 66 µM
- IC50 [4]: > 50 µM
- MTT data (raw reading) ([5]; 0.023 uM, n = 1): 1.493 and 1.422 and 1.498
- MTT data (raw reading) ([5]; 0.023 uM, n = 2): 1.187 and 1.056 and 1.058
- MTT data (raw reading) ([5]; 0.068 uM, n = 1): 1.655 and 1.492 and 1.570
- MTT data (raw reading) ([5]; 0.068 uM, n = 2): 1.098 and 1.078 and 1.080
- MTT data (raw reading) ([5]; 0.21 uM, n = 1): 1.461 and 1.519 and 1.638
- MTT data (raw reading) ([5]; 0.21 uM, n = 2): 1.171 and 1.012 and 1.113
- MTT data (raw reading) ([5]; 0.62 uM, n = 1): 1.554 and 1.331 and 1.351
- MTT data (raw reading) ([5]; 0.62 uM, n = 2): 1.166 and 1.093 and 0.989
- MTT data (raw reading) ([5]; 1.85 uM, n = 1): 1.381 and 1.338 and 1.408
- MTT data (raw reading) ([5]; 1.85 uM, n = 2): 1.030 and 0.960 and 0.941
- MTT data (raw reading) ([5]; 5.6 uM, n = 1): 1.292 and 1.223 and 1.327
- MTT data (raw reading) ([5]; 5.6 uM, n = 2): 0.968 and 1.003 and 0.916
- MTT data (raw reading) ([5]; 16.7 uM, n = 1): 1.160 and 1.126 and 1.075
- MTT data (raw reading) ([5]; 16.7 uM, n = 2): 0.762 and 0.627 and 0.780
- MTT data (raw reading) ([5]; 50 uM, n = 1): 0.797 and 0.734
- MTT data (raw reading) ([5]; 50 uM, n = 2): 0.478 and 0.528
- IC50 [5]: 49 µM

- MIC [2, 6]: 6.25 µM (≈ 2.77 µg/mL)
- MIC ([3]; Escherichia coli, W3110, WT): 1.6 µM (≈ 0.71 µg/mL)
Structure (SMILES): O=S(=O)(NC[C@@H]1CC[C@H](c2ccc(-c3ccccc3)cc2)N1)c1cccc2cnccc12 [Compound 100]
- MTT data (raw readout) ([4]; HepG2, 0.023 uM, experiment n = 1, technical triplicates): 0.333 and 0.336 and 0.361
- MTT data (raw readout) ([4]; HepG2, 0.023 uM, experiment n = 2, technical triplicates): 0.317 and 0.327 and 0.342
- MTT data (raw readout) ([4]; HepG2, 0.068 uM, experiment n = 1, technical triplicates): 0.444 and 0.395 and 0.393
- MTT data (raw readout) ([4]; HepG2, 0.068 uM, experiment n = 2, technical triplicates): 0.444 and 0.405 and 0.418
- MTT data (raw readout) ([4]; HepG2, 0.21 uM, experiment n = 1, technical triplicates): 0.321 and 0.295 and 0.307
- MTT data (raw readout) ([4]; HepG2, 0.21 uM, experiment n = 2, technical triplicates): 0.315 and 0.286 and 0.293
- MTT data (raw readout) ([4]; HepG2, 0.62 uM, experiment n = 1, technical triplicates): 0.316 and 0.335 and 0.382
- MTT data (raw readout) ([4]; HepG2, 0.62 uM, experiment n = 2, technical triplicates): 0.313 and 0.317 and 0.366
- MTT data (raw readout) ([4]; HepG2, 1.85 uM, experiment n = 1, technical triplicates): 0.377 and 0.346 and 0.368
- MTT data (raw readout) ([4]; HepG2, 1.85 uM, experiment n = 2, technical triplicates): 0.307 and 0.264 and 0.317
- MTT data (raw readout) ([4]; HepG2, 5.6 uM, experiment n = 1, technical triplicates): 0.341 and 0.333 and 0.345
- MTT data (raw readout) ([4]; HepG2, 5.6 uM, experiment n = 2, technical triplicates): 0.271 and 0.300 and 0.310
- MTT data (raw readout) ([4]; HepG2, 16.7 uM, experiment n = 1, technical triplicates): 0.345 and 0.363 and 0.356
- MTT data (raw readout) ([4]; HepG2, 16.7 uM, experiment n = 2, technical triplicates): 0.277 and 0.308 and 0.357
- MTT data (raw readout) ([4]; HepG2, 50 uM, experiment n = 1, technical triplicates): 0.236 and 0.222 and 0.339
- MTT data (raw readout) ([4]; HepG2, 50 uM, experiment n = 2, technical triplicates): 0.109 and 0.122 and 0.118
- IC50 ([4]; Homo sapiens, HepG2, 24 h): 37 µM
- cytotoxicity ([5]; HEK293T and HepG2): substantial cytotoxicity
- MTT data (raw readout) ([5]; 0.023 uM, experiment n = 1, technical triplicates): 1.435 and 1.455 and 1.506
- MTT data (raw readout) ([5]; 0.023 uM, experiment n = 2, technical triplicates): 1.022 and 0.970 and 0.963
- MTT data (raw readout) ([5]; 0.068 uM, experiment n = 1, technical triplicates): 1.260 and 1.443 and 1.546
- MTT data (raw readout) ([5]; 0.068 uM, experiment n = 2, technical triplicates): 1.032 and 0.974 and 0.962
- MTT data (raw readout) ([5]; 0.21 uM, experiment n = 1, technical triplicates): 1.440 and 1.428 and 1.427
- MTT data (raw readout) ([5]; 0.21 uM, experiment n = 2, technical triplicates): 1.023 and 0.943 and 0.880
- MTT data (raw readout) ([5]; 0.62 uM, experiment n = 1, technical triplicates): 1.304 and 1.414 and 1.203
- MTT data (raw readout) ([5]; 0.62 uM, experiment n = 2, technical triplicates): 0.795 and 0.796 and 0.802
- MTT data (raw readout) ([5]; 1.85 uM, experiment n = 1, technical triplicates): 0.892 and 0.934 and 1.008
- MTT data (raw readout) ([5]; 1.85 uM, experiment n = 2, technical triplicates): 0.653 and 0.625 and 0.564
- MTT data (raw readout) ([5]; 5.6 uM, experiment n = 1, technical triplicates): 0.787 and 0.844 and 0.842
- MTT data (raw readout) ([5]; 5.6 uM, experiment n = 2, technical triplicates): 0.528 and 0.470 and 0.496
- MTT data (raw readout) ([5]; 16.7 uM, experiment n = 1, technical triplicates): 0.654 and 0.620 and 0.622
- MTT data (raw readout) ([5]; 16.7 uM, experiment n = 2, technical triplicates): 0.433 and 0.475 and 0.464
- MTT data (raw readout) ([5]; 50 uM, experiment n = 1, technical triplicates): 0.419 and 0.461 and 0.443
- MTT data (raw readout) ([5]; 50 uM, experiment n = 2, technical triplicates): 0.271 and 0.254 and 0.252
- IC50 [5]: 8.1 µM
